According to US10538498B2, “1,3,4-oxadiazole sulfonamide derivative compounds as histone deacetylase 6 inhibitor, and the pharmaceutical composition comprising the same” (Chong Kun Dang Pharmaceutical Corp., priority 2015, dated 2020):

Assays:
[1] = target: T1, human recombinant HDAC6 (Homo sapiens, UniProt Q9UBN7); assay: HDAC6 enzyme activity inhibition assay (HDAC Fluorimetric Drug Discovery Kit); assay type: biochemical; conditions: for HDAC6 selectivity (fold): HDAC1 vs HDAC6; for IC50: same protocol as the HDAC1 enzyme activity test
T1 construct: purchased Calbiochem 382180
T1 sequence (Q9UBN7 1-1215): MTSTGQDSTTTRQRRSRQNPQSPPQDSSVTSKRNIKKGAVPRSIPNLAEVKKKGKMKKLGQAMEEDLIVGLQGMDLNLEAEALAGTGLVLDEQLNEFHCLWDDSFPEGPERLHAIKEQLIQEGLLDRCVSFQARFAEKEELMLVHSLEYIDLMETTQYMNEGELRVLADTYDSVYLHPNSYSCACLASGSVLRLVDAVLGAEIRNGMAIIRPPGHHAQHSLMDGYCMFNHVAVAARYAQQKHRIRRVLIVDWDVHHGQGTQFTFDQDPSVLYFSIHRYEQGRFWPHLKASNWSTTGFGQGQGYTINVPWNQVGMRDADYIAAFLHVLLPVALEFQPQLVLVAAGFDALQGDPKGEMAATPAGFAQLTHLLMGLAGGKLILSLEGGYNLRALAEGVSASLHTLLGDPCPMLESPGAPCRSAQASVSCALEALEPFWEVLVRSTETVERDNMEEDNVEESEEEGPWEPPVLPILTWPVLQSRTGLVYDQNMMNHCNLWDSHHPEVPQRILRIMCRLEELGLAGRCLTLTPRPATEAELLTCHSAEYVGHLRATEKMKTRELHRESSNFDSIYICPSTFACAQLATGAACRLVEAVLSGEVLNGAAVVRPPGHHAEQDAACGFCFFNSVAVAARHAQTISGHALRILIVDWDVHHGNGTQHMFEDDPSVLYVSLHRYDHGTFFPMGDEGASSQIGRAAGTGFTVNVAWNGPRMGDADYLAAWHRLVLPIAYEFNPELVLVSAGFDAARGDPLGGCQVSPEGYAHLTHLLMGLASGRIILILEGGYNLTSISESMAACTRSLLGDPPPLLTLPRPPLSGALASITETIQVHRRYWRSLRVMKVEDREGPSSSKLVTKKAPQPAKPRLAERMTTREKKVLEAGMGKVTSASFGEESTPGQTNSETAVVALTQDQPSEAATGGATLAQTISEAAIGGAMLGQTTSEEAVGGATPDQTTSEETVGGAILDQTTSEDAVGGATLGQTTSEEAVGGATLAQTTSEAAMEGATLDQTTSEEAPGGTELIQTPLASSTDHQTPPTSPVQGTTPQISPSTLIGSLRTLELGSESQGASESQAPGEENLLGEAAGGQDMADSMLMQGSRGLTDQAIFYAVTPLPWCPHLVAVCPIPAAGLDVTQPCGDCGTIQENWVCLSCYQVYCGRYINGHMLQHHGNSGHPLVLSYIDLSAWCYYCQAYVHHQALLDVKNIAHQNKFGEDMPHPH
How it was run: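 Recombinant enzyme (0.3 μg) was incubated with 5-fold serially diluted compound and 10 μM Fluor de Lys-SIRT1 substrate for 60 min at 30° C. Developer II was then added for 30 min, fluorescence read at Ex 360/Em 460, and IC50 values were calculated.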

[2] = target: T2, human recombinant HDAC1 (Homo sapiens, UniProt Q13547); assay: HDAC1 enzyme activity inhibition assay (HDAC Fluorimetric Drug Discovery Kit); assay type: biochemical; conditions: 0.3 μg enzyme, 10 μM substrate, 30° C., 60 minutes
T2 construct: purchased Enzo Life Science BML-SE456
T2 sequence (Q13547 whole entry): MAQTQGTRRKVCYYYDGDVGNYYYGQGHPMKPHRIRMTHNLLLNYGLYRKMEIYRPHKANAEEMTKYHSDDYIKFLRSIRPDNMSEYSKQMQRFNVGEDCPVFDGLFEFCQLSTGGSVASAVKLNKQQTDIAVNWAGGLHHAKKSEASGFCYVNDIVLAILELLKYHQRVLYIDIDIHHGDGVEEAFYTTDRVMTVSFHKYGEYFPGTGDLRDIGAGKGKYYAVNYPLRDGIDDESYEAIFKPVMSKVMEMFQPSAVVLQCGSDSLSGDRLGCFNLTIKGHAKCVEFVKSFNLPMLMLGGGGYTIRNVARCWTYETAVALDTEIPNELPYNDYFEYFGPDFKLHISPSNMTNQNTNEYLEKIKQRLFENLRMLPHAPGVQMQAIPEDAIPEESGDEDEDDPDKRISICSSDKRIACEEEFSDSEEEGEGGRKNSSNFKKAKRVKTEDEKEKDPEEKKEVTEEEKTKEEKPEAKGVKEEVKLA
Procedure: In order to examine the HDAC6 selectivity of the compounds of formula I of the present invention by HDAC1 and HDAC6 enzymatic activity inhibition assays, an experiment was performed using a conventional substance as a control.
HDAC enzyme activity was measured using a HDAC Fluorimetric Drug Discovery Kit (BML-AK511, 516, Enzo Life Science). For the HDAC1 enzyme activity test, human recombinant HDAC1 (BML-SE456) was used as an enzyme source, and Fluor de Lys®-“SIRT1 (BNL-KI177) was used as a substrate. A 5-fold dilution of the compound was seeded into a 96-well plate, and then 0.3 μg of the enzyme and 10 μM of the substrate were added to each well of the plate and allowed to react at 30° C. for 60 minutes. Then, Fluor de Lys®-Developer II (BML-KI176) was added thereto and allowed to react for 30 minutes, after which the fluorescence value (Ex 360, Em 460) was measured using a multi-plate reader (Flexstation 3, Molecular Device). The HDAC6 enzyme was tested using human recombinant HDAC6 (382180) (Calbiochem) according to the same protocol as the HDAC1 enzyme activity test method. Based on the resulting values, each IC50 value was calculated using GraphPad Prism4.0 program.

Structure (SMILES) | HDAC6 selectivity (fold) [1] | IC50 [1] | IC50 [2]
CN1CCC(S(=O)(=O)N(Cc2ccc(-c3nnc(C(F)F)o3)cc2)c2ccccc2)CC1 [Compound 11637, N-(4-(5-(difluoromethyl)-1,3,4-oxadiazol-2-yl)benzyl)-1-methyl-N-phenylpiperidine-4-sulfonamide] | 3349 fold | 20 nM | 67000 nM
CCS(=O)(=O)N(Cc1ccc(-c2nnc(C(F)F)o2)cn1)c1cc(F)cc(F)c1 [Compound 11463, N-((5-(5-(difluoromethyl)-1,3,4-oxadiazol-2-yl)pyridin-2-yl)methyl)-N-(3,5-difluorophenyl)ethanesulfonamide] | 2789 fold | 8 nM | 22300 nM
Cc1cccc(N(Cc2ccc(-c3nnc(C(F)F)o3)cn2)S(=O)(=O)C2CCN([C@H]3CC[C@@H](C(F)(F)F)CC3)CC2)c1 [Compound 11691, N-((5-(5-(difluoromethyl)-1,3,4-oxadiazol-2-yl)pyridin-2-yl)methyl)-N-(m-tolyl)-1-((1s,4s)-4-(trifluoromethyl)cyclohexyl)piperidine-4-sulfonamide] | 425 fold | 80.5 nM | 34200 nM
CS(=O)(=O)N(Cc1ccc(-c2nnc(C(F)F)o2)c(F)c1)c1ccccc1 [Compound 11184, N-(4-(5-(difluoromethyl)-1,3,4-oxadiazol-2-yl)-3-fluorobenzyl)-N-phenylmethanesulfonamide] | 63 fold | 36 nM | 2270 nM
O=S(=O)(CCCN1CCCC1)N(Cc1ccc(-c2nnc(C(F)F)o2)cn1)c1ccccc1 [Compound 11710, N-((5-(5-(difluoromethyl)-1,3,4-oxadiazol-2-yl)pyridin-2-yl)methyl)-N-phenyl-3-(pyrrolidin-1-yl)propane-1-sulfonamide] | 578 fold | 50.9 nM | 29400 nM
O=S(=O)(C1CCN([C@H]2CC[C@@H](F)CC2)CC1)N(Cc1ccc(-c2nnc(C(F)F)o2)cn1)c1cccc(Cl)c1 [Compound 11728, N-(3-chlorophenyl)-N-((5-(5-(difluoromethyl)-1,3,4-oxadiazol-2-yl)pyridin-2-yl)methyl)-1-((1s,4s)-4-fluorocyclohexyl)piperidine-4-sulfonamide] | 453 fold | 47.6 nM | 21600 nM
O=S(=O)(C1CCOCC1)N(Cc1ccc(-c2nnc(C(F)(F)F)o2)cn1)c1ccccc1 [Compound 11431, N-phenyl-N-((5-(5-(trifluoromethyl)-1,3,4-oxadiazol-2-yl)pyridin-2-yl)methyl)tetrahydro-2H-pyran-4-sulfonamide] | 453 fold | 62 nM | 28100 nM
O=S(=O)(CCCN1CCOCC1)N(Cc1ccc(-c2nnc(C(F)F)o2)cn1)c1ccc(F)c(Cl)c1 [Compound 11711, N-(3-chloro-4-fluorophenyl)-N-((5-(5-(difluoromethyl)-1,3,4-oxadiazol-2-yl)pyridin-2-yl)methyl)-3-morpholinopropane-1-sulfonamide] | 874 fold | 70.1 nM | 61300 nM
O=C(c1cncn1CCS(=O)(=O)N(Cc1ccc(-c2nnc(C(F)F)o2)cc1)c1ccccc1)C(F)F [Compound 11678, 2-(5-(2,2-difluoroacetyl)-1H-imidazol-1-yl)-N-(4-(5-(difluoromethyl)-1,3,4-oxadiazol-2-yl)benzyl)-N-phenylethane-1-sulfonamide] | 975 fold | 56 nM | 54600 nM
CCS(=O)(=O)N(Cc1ccc(-c2nnc(C(F)F)o2)cn1)c1ccc(C)c(F)c1 [Compound 11460, N-((5-(5-(difluoromethyl)-1,3,4-oxadiazol-2-yl)pyridin-2-yl)methyl)-N-(3-fluoro-4-methylphenyl)ethanesulfonamide] | 2727 fold | 10 nM | 27300 nM
CS(=O)(=O)N(Cc1ccc(-c2nnc(C(F)(F)F)o2)cc1F)c1cccnc1 [Compound 11089, N-(2-fluoro-4-(5-(trifluoromethyl)-1,3,4-oxadiazol-2-yl)benzyl)-N-(pyridin-3-yl)methanesulfonamide] | 957 fold | 50 nM | 47900 nM
CS(=O)(=O)N1CCN(CCCS(=O)(=O)N(Cc2ccc(-c3nnc(C(F)F)o3)cc2)c2ccccc2)CC1 [Compound 11648, N-(4-(5-(difluoromethyl)-1,3,4-oxadiazol-2-yl)benzyl)-3-(4-(methylsulfonyl)piperazin-1-yl)-N-phenylpropane-1-sulfonamide] | 8300 fold | 60 nM | 498000 nM
CS(=O)(=O)N(Cc1ccc(-c2nnc(C(F)(F)F)o2)cc1F)c1cccc(Br)c1 [Compound 11196, N-(3-bromophenyl)-N-(2-fluoro-4-(5-(trifluoromethyl)-1,3,4-oxadiazol-2-yl)benzyl)methanesulfonamide] | 441 fold | 65 nM | 28700 nM
Cc1cccc(N(Cc2ccc(-c3nnc(C(F)(F)F)o3)cc2F)S(C)(=O)=O)c1 [Compound 11177, N-(2-fluoro-4-(5-(trifluoromethyl)-1,3,4-oxadiazol-2-yl)benzyl)-N-(m-tolyl)methanesulfonamide] | 332 fold | 57 nM | 18900 nM
NC(=O)[C@H]1CCCN1CCS(=O)(=O)N(Cc1ccc(-c2nnc(C(F)F)o2)cn1)c1ccccc1 [Compound 11848, (R)-1-(2-(N-((5-(5-(difluoromethyl)-1,3,4-oxadiazol-2-yl)pyridin-2-yl)methyl)-N-phenylsulfamoyl)ethyl)pyrrolidine-2-carboxamide] | 661 fold | 58.9 nM | 38900 nM
CCS(=O)(=O)N(Cc1ccc(-c2nnc(C(F)F)o2)cn1)c1ccc(F)c(C)c1 [Compound 11461, N-((5-(5-(difluoromethyl)-1,3,4-oxadiazol-2-yl)pyridin-2-yl)methyl)-N-(4-fluoro-3-methylphenyl)ethanesulfonamide] | 2769 fold | 10 nM | 27700 nM
CCS(=O)(=O)N(Cc1ccc(-c2nnc(C(F)F)o2)cn1)c1ccc(Cl)c(Cl)c1 [Compound 11507, N-(3,4-dichlorophenyl)-N-((5-(5-(difluoromethyl)-1,3,4-oxadiazol-2-yl)pyridin-2-yl)methyl)ethanesulfonamide] | 3672 fold | 14 nM | 51400 nM
C[C@@H]1CN(CCS(=O)(=O)N(Cc2ccc(-c3nnc(C(F)F)o3)cc2)c2ccccc2)C[C@H](C)N1C [Compound 11646, N-(4-(5-(difluoromethyl)-1,3,4-oxadiazol-2-yl)benzyl)-N-phenyl-2-((3S,5R)-3,4,5-trimethylpiperazin-1-yl)ethane-1-sulfonamide] | 7254 fold | 15 nM | 109000 nM
